Measured values: patent US10968227B2, “Isoquinoline ether compounds as mGluR4 allosteric potentiators, compositions, and methods of treating neurological dysfunction” (Vanderbilt University, priority 2016, dated 2021)
≈ marks a conversion by molar mass, not a printed value.

Experiments:
[1] = Rat brain fraction unbound; type: in vitro ADME; conditions: read-out: Rat Fu Brain
[2] = Brain-plasma partition; type: in vivo; conditions: rat; for unbound brain-to-plasma partition coefficient (Kp,uu): unbound brain-plasma ratio, read-out: Brain-Plasma Kp,ω
[3] = molecular target: 2D6 (Homo sapiens (Human), UniProt P10635); test: CYP 2D6 inhibition; type: in vitro ADME
[4] = Rat in vivo clearance; conditions: read-out: Rat in Vivo CL
[5] = Rat intrinsic and hepatic clearance; type: in vitro ADME
[6] = Kinetic solubility; type: physicochemical; conditions: kinetic from dmso stock
[7] = molecular target: 3A4 (Homo sapiens (Human), UniProt P08684); test: CYP 3A4 inhibition; type: in vitro ADME
[8] = Human plasma fraction unbound; type: in vitro ADME; conditions: read-out: Human Fu Plasma
[9] = Human intrinsic and hepatic clearance; type: in vitro ADME
[10] = molecular target: 1A2 (Homo sapiens (Human), UniProt P05177); test: CYP 1A2 inhibition; type: in vitro ADME
[11] = molecular target: 2C9 (Homo sapiens (Human), UniProt P11712); test: CYP 2C9 inhibition; type: in vitro ADME
[12] = Rat plasma fraction unbound; type: in vitro ADME; conditions: read-out: Rat Fu Plasma
[13] = molecular target: mGlu4 (Homo sapiens, UniProt Q14833); test: mGluR4 potentiation (PAM) fluorescence assay with EC20 agonist; type: cell-based
Method: The disclosed compounds and compositions can be evaluated for their ability to act as a potentiator of metabotropic glutamate receptor activity, in particular mGluR4 activity, by any suitable known methodology known in the art. For example, Chinese Hamster Ovary (CHO) cells transfected with human mGluR4 or HEK cells co-transfected with rat mGuR4 and the G-protein regulated Inwardly Rectifying Potassium channel (GIRK) were plated in clear bottom assay plates for assay in a Hamamatsu FDSS Fluorometric Plate Reader. The cells were loaded with either a Ca2+-sensitive fluorescent dye or the thallium responsive dye and the plates were washed and placed into a suitable kinetic plate reader. For human mGuR4 assays, a fluorescence baseline was established for 3-5 seconds, the disclosed compounds were then added to the cells, and the response in cells was measured. Approximately two and a half minutes later, a concentration of mGuR4 orthosteric agonist (e.g. glutamate or L-AP4) eliciting approximately 20% (EC20) of the maximal agonist response was added to the cells, and the response was measured. Two minutes later, a concentration of mGluR4 agonist (e.g. glutamate or L-AP4) eliciting 80% (EC80) of the maximal agonist response was added to the cells, and the response was measured. […] If the compound acts as a noncompetitive antagonist, an IC50 value is determined by non-linear curve fitting. […]

3A4, sequence (P08684 whole entry): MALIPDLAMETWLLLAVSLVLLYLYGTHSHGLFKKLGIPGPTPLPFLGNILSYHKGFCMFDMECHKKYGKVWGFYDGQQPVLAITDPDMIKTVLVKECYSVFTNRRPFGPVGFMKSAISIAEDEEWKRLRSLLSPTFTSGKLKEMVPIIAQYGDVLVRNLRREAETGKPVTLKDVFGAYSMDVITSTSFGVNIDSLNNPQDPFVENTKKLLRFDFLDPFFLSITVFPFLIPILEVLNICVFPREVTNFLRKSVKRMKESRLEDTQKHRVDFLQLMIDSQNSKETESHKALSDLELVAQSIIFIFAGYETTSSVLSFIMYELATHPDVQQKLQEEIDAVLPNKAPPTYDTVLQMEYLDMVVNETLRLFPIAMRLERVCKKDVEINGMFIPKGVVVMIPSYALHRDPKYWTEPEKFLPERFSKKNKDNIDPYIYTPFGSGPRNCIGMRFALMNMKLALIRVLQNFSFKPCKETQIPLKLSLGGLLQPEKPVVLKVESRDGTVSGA
2C9, sequence (P11712 whole entry): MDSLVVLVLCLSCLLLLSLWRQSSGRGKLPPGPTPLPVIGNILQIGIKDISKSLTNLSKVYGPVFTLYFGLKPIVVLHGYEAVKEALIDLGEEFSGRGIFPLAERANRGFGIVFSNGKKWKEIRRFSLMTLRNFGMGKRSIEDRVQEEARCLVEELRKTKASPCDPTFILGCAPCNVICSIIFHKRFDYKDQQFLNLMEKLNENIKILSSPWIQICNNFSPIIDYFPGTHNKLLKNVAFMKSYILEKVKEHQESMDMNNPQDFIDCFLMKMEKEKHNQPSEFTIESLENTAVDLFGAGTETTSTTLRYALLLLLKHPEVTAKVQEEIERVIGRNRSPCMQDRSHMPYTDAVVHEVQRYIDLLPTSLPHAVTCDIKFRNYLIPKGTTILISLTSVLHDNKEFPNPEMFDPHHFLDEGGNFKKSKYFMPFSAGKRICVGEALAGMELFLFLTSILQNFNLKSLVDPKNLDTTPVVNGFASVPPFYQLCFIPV
2D6, sequence (P10635 whole entry): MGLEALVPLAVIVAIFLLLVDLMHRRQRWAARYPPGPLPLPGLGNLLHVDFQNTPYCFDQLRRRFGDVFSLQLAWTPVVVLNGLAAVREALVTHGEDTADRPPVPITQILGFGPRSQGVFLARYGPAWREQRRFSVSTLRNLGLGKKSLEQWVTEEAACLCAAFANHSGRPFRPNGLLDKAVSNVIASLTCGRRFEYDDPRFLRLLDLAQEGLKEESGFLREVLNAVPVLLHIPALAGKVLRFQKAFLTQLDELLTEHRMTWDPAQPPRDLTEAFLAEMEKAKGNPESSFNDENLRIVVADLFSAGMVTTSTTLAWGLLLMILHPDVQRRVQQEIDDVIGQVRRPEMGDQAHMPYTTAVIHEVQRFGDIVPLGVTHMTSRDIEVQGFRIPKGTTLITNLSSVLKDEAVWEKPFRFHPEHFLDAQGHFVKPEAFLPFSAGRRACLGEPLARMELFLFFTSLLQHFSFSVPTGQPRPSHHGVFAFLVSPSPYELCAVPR
1A2, sequence (P05177 whole entry): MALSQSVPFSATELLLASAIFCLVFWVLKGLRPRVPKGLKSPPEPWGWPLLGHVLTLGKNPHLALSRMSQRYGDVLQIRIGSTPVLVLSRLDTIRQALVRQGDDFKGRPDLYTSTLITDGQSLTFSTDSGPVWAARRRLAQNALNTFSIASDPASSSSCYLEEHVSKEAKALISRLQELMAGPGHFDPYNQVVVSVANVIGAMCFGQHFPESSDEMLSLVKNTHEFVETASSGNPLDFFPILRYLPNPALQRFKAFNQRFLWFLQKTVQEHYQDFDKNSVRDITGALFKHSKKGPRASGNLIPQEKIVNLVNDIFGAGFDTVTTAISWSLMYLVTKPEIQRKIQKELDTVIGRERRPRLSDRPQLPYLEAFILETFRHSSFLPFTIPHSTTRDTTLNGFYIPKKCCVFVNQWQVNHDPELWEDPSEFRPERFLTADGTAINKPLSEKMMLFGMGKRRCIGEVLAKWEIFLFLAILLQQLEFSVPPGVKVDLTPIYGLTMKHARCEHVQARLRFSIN
mGlu4, sequence (Q14833 33-912 limits assumed): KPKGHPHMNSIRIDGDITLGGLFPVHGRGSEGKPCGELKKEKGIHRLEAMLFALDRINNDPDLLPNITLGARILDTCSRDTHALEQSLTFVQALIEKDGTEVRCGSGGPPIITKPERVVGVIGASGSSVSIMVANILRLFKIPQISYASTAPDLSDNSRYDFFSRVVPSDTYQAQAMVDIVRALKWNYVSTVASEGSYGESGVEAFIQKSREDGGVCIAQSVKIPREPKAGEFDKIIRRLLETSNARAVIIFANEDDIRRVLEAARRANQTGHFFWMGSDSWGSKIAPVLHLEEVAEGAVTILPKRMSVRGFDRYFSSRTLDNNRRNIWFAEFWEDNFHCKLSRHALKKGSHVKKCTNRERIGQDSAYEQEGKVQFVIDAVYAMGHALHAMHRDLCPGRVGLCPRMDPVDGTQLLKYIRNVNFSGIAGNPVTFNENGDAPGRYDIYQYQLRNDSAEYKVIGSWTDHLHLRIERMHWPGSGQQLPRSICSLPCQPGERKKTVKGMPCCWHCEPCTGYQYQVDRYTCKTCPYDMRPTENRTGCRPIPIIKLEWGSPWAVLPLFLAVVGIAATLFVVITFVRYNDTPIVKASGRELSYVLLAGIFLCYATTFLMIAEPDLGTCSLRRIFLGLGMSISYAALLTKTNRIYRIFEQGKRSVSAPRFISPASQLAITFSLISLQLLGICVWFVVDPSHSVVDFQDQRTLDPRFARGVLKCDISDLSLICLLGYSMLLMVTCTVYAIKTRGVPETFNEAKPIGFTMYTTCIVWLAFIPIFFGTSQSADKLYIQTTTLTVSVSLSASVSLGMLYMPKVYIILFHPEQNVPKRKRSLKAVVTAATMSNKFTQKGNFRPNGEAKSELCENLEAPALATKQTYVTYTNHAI

Row | Structure (SMILES) | fraction unbound [1] | Kp [2] | unbound brain-to-plasma partition coefficient (Kp,uu) [2] | IC50 [3] [µM] | clearance [4] [mL/min/kg] | CLint scaled [5] [mL/min/kg] | Rat CLhep [5] [mL/min/kg] | solubility kinetic [6] [µM] | IC50 [7] [µM] | fraction unbound [8] | CLint scaled [9] [mL/min/kg] | Human CLhep [9] [mL/min/kg] | IC50 [10] [µM] | IC50 [11] [µM] | fraction unbound [12] | EC50 [13] [µM]
1 | CO[C@H](C)COc1nccc2cc(Nc3n[nH]c4cccnc34)ccc12 [Compound 70] | 0.006 | 2.56 | 0.48 | 22.5 | 74.2 | 238 | 54.1 | 2.9 ± 0.4 (≈ 1.01 µg/mL) | 11.4 | 0.017 | 57 | 15.3 | 4.96 | 6.87 | 0.032 | –
2 | c1cnc2c(Nc3ccc4c(OCC5CCCCO5)nccc4c3)n[nH]c2c1 (stereo not drawn) [Compound 56] | 0.003 | 1.09 | 0.23 | 22.2 | – | 348 | 58.3 | – | 22.6 | 0.007 | 72.3 | 16.3 | 8.43 | 3.56 | 0.014 | 0.0788
3 | c1cnc2c(Nc3ccc4c(O[C@H]5CCOC5)nccc4c3)n[nH]c2c1 [Compound 64] | 0.007 | 1.22 | 0.2 | > 30 | 59.8 | 94.8 | 40.3 | 4.9 ± 0.6 (≈ 1.7 µg/mL) | 27.7 | 0.02 | 29.1 | 12.2 | 7.99 | 10.6 | 0.042 | –
4 | c1cc2cc(Nc3n[nH]c4nccnc34)ccc2c(OCC2CCCCO2)n1 (stereo not drawn) [Compound 57] | 0.004 | 0.89 | 0.24 | – | – | 211 | 52.6 | – | – | 0.011 | 53.8 | 15.1 | – | – | 0.015 | 0.0697

Second part, the molecule after the results:

Row | fraction unbound [1] | Kp [2] | unbound brain-to-plasma partition coefficient (Kp,uu) [2] | IC50 [3] [µM] | clearance [4] [mL/min/kg] | CLint scaled [5] [mL/min/kg] | Rat CLhep [5] [mL/min/kg] | solubility kinetic [6] [µM] | IC50 [7] [µM] | fraction unbound [8] | CLint scaled [9] [mL/min/kg] | Human CLhep [9] [mL/min/kg] | IC50 [10] [µM] | IC50 [11] [µM] | fraction unbound [12] | EC50 [13] [µM] | Structure (SMILES)
5 | 0.01 | 0.57 | 0.15 | > 30 | 32.7 | 120 | 44.2 | 2.4 ± 0.5 (≈ 0.906 µg/mL) | 29.5 | 0.038 | 26.5 | 11.5 | 16.4 | 15.3 | 0.039 | – | c1cnc2c(Nc3ccc4c(OCC5COCCO5)nccc4c3)n[nH]c2c1 (stereo not drawn) [Compound 73]
6 | 0.013 | 0.66 | 0.45 | > 30 | 36.9 | 95.7 | 40.4 | 0.6 ± 0.1 (≈ 0.217 µg/mL) | > 30 | 0.026 | 41.2 | 13.9 | > 30 | > 30 | 0.019 | – | c1cc2cc(Nc3n[nH]c4nccnc34)ccc2c(OCC2CCOC2)n1 (stereo not drawn) [Compound 85]
